Results taken from US8580852B2, “2-oxamide inhibitors of phospholipase A2 activity and cellular arachidonate release based on dipeptides and pseudopeptides” (The Regents of the University of California, priority 2009, dated 2013).
Values joined by “and” are separate entries in the source; they are usually repeats but may differ in a detail not shown here. Identical values can stand only once. Like-named read-outs stand apart in the source and are kept apart here.

How the values were obtained:
RAW 264.7 macrophages = experiment: Inhibition of Kdo2-Lipid A stimulated arachidonic acid release; type: cell-based; conditions: for Effect on AA release (in words): 25 μM inhibitor; for Effect on AA release (in words) / IC50: Kdo2-Lipid A; for IC50 / inhibition at 25 µM: Mus musculus; for IC50: RAW264.7, RAW 264.7 cells, half maximal of the maximum inhibition observed; for inhibition at 25 µM: RAW264.7, read-out: AA Release Inhibition (%)
From the text: Arachidonic acid (AA) is the ideal metabolic indicator of GIVA cPLA2 activity, since it is the product of GIVA cPLA2-mediated catalysis. In addition to some of the new 2-oxoamides based on dipeptides and pseudodipeptides that were synthesized in this work, a series of potent 2-oxoamide in vitro inhibitors of GIVA cPLA2, previously reported by us, were further tested in a cellular ex vivo system to investigate whether they reduced cellular AA production. For this purpose, RAW 264.7 macrophages were preincubated with 25 μM concentrations of the inhibitor prior to treatment of the cells with Kdo2-Lipid A. Subsequently, AA release was quantitated from the supernatants.
RAW 264.7 macrophages were maintained in a humidified atmosphere at 37° C. with 5% CO2, as described elsewhere.^36 The cells were cultured in DMEM media that was supplemented with 10% fetal bovine serum, 2 mM glutamine, 100 units/mL penicillin, 100 μg/ml streptomycin, and non-essential amino acids. The cells were plated at a confluency of 2×10^6 cells per well in 6 well tissue culture plates and allowed to adhere overnight. Inhibitors were added to the medium 30 min before Kdo2-Lipid A was added and the supernatants were collected at 1 hour following stimulation. Subsequently, AA was extracted from the supernatants and quantitated by HPLC-MS, as described elsewhere.^36, 37 AA release levels were normalized to pmol AA release per million cells though DNA quantitation using the Broad Range DNA Quant-Kit (Invitrogen). IC50 values were determined by estimating the concentration of inhibitor required for half maximal inhibition of the maximum inhibition observed with a given inhibitor.

GIVA cPLA2 [1] = molecular target: T1, GIVA cPLA2 (Homo sapiens, UniProt P47712); experiment: In vitro PLA2 mixed micellar assay (modified Dole assay), GIVA cPLA2; type: biochemical; conditions: for GIVA cPLA2 X1(50): mixed micelles, mole fraction of inhibitor in total substrate interface required to inhibit the enzyme by 50%; for GIVA cPLA2 % inhibition: at 0.091 mole fraction of inhibitor, n = 3
T1 sequence (P47712 1-749): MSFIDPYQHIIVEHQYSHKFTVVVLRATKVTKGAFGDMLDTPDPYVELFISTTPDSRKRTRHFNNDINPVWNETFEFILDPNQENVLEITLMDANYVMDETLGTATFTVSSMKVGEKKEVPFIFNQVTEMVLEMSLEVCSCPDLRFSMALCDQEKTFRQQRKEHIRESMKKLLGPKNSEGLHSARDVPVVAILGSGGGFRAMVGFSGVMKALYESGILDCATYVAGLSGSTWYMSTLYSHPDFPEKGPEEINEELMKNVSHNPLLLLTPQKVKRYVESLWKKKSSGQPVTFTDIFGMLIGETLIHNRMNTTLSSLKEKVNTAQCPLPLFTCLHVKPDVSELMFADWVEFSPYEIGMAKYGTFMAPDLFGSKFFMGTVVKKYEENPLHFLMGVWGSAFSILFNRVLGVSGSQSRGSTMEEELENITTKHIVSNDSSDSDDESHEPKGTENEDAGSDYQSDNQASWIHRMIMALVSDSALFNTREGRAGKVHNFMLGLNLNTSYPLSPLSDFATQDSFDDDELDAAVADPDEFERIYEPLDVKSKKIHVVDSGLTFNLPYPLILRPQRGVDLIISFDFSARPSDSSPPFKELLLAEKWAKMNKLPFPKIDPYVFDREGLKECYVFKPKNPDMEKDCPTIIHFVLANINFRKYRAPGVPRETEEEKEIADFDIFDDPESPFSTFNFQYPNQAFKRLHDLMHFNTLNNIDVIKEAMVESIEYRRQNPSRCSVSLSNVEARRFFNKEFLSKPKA
Procedure: (§1) All the inhibitors synthesized in this work were tested for inhibition of GIVA cPLA2, GVIA iPLA2 and GV sPLA2 using mixed micellar assays. Details for the assays have been published previously. The results of the inhibition are presented in Table 1 using either percent inhibition or XI(50) values. Initially, the percent inhibition of each PLA2 at 0.091 mole fraction of inhibitor was determined. XI(50) values were estimated when the percent inhibition was higher than 90%. The XI(50) is the mole fraction of the inhibitor in the total substrate interface required to inhibit the enzyme by 50%. Data for the reference 2-oxoamide inhibitors AX006 and AX048 are included in Table 1 for comparison. Phospholipase A2 activity was determined using the previously described modified Dole assay with buffer and substrate conditions optimized for each enzyme as described previously: (i) GIVA cPLA2 substrate mixed-micelles were composed of 400 μM Triton […]-labeled PAPC, and 3 μM PIP2 in buffer containing 100 mM HEPES pH 7.5, 90 μM CaCl2, 2 mM DTT and 0.1 mg/ml BSA; (ii) GVI iPLA2 substrate mixed-micelles were composed of either (a) 400 μM Triton X-100, 99 μM DPPC, and 1.5 μM ^14C-labeled DPPC in buffer containing 200 mM HEPES pH 7.0, 1 mM ATP, 2 mM DTT and 0.1 mg/ml BSA or (b) 400 μM Triton X-100, 98.3 μM PAPC, and 1.7 μM ^14C-labeled PAPC in buffer containing 100 mM HEPES pH 7.5, 2 mM ATP and 4 mM DTT; and (iii) GV sPLA2 substrate mixed-micelles were composed of 400 μM Triton X-100, 99 μM DPPC, and 1.5 μM ^14C-labeled DPPC in buffer containing 50 mM Tris pH 8.0 and 5 mM CaCl2. Initial screening of compounds at 0.091 mole fraction inhibitor in mixed-micelles was carried out. Compounds displaying 25% or less inhibition had no inhibitory affect (designated N.D.). The average percent inhibition (and standard error, n=3) for compounds displaying more than 25% and less than 90% enzyme inhibition is reported herein. If the percent inhibition was greater than 90%, then its XI(50) was determined by plotting percent inhibition vs. inhibitor molar fraction (7 points; typically 0.005 to 0.091 mole fraction). Inhibition curves were modeled in Graphpad Prism using either a linear (x, y intercept=0) or non-linear regression (one-site binding model-hyperbola, BMAX=100) to calculate the reported XI(50) and associated error values.

GV sPLA2 = molecular target: T2, GV sPLA2 (Homo sapiens, UniProt P39877); experiment: In vitro PLA2 mixed micellar assay (modified Dole assay), GV sPLA2; type: biochemical; conditions: at 0.091 mole fraction of inhibitor, n = 3
T2 sequence (P39877 21-138): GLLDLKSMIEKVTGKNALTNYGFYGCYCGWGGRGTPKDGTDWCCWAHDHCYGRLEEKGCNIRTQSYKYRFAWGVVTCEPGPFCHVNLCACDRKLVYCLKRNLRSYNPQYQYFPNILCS
Procedure: as §1

GIVA cPLA2 [2] = molecular target: T1, GIVA cPLA2; conditions: in vitro; inhibitors previously reported; also inhibit GVIA iPLA2 and GV sPLA2; cited from earlier work
[3] = read-out: IC50 for the inhibition of arachidonic acid release
[4] = read-out: IC50 for the inhibition of arachidonic acid release (text)
[5] = 25 μM inhibitor preincubated, Kdo2-Lipid A stimulation, RAW 264.7 macrophages

| IC50 (RAW 264.7 macrophages; [3]) [µM] | IC50 (RAW 264.7 macrophages; [4]) [µM] | SMILES | Effect on AA release (in words) (RAW 264.7 macrophages; RAW 264.7 macrophages) | inhibition at 25 µM (RAW 264.7 macrophages; [5]) [%] | melting point [°C] | further results |
| --- | --- | --- | --- | --- | --- | --- |
| 25 | ~25 | CCC(=O)C(=O)NCCCC(=O)O [Compound 19] | significant reduction of AA release | 52 ± 5 | – | – |
| 7 | 7 | CCC[C@@H](CCCC(=O)O)NC(=O)C(=O)CC [Compound 35] | significant reduction of AA release | – | – | – |
| – | – | CCC[C@@H](/C=C/C(=O)OC)NC(=O)C(=O)CC [Compound 29] | – | – | – | Inhibition of GIVA cPLA2 (in words) (GIVA cPLA2 [2]): inhibit GIVA cPLA2 to a high extent, though not selectively |
| – | – | CCCCCCCCCCCCCCC(=O)C(=O)N[C@H](C(=O)NCC(=O)OC)C(C)C [Compound 4b, (S)-Methyl-2-(3-methyl-2-(2-oxohexadecanamido)butanamido)-acetate] | – | – | 118 to 119 | GIVA cPLA2 % inhibition (GIVA cPLA2 [1]): 25%; inhibition at 0.091 mole fraction (GV sPLA2): < 25% |
| 25 | ~25 | CCC(=O)C(=O)N[C@H](CCC(=O)O)CC(C)C [Compound 25] | significant reduction of AA release | 62 ± 5 | – | – |
| 25 | ~25 | CCC[C@@H](CCC(=O)O)NC(=O)C(=O)CC [Compound 26] | significant reduction of AA release | 79 ± 0.5 | – | – |
| – | – | CCC(=O)C(=O)N[C@@H](C)CCC(=O)OC(C)(C)C [Compound 31] | – | – | – | Inhibition of GIVA cPLA2 (in words) (GIVA cPLA2 [2]): inhibit GIVA cPLA2 to a high extent, though not selectively |
| – | – | CCCCCCCCCCCCCCC(=O)C(=O)N[C@H](C(=O)NCC(=O)OC(C)(C)C)C(C)C [Compound 8b, (S)-tert-Butyl-2-(3-methyl-2-(2-oxohexadecanamido)butanamido)-acetate] | – | 30 | 58 to 61 | GIVA cPLA2 X1(50) (GIVA cPLA2 [1]): 0.028 ± 0.015 mole fraction; AA Release Inhibition (%) (RAW 264.7 macrophages; [5]): 30 ± 2% |
| – | – | CCCCCCCCCCCCCCC(=O)C(=O)N[C@@H](CCCC)COCC(=O)OCC [Compound 13, (S)-Ethyl 2-(2-(2-oxohexadecanamido)hexyloxy)acetate] | – | – | 41 to 43 | GIVA cPLA2 % inhibition (GIVA cPLA2 [1]): 52% |
| – | – | CCCCCCCCCCCCCCC(=O)C(=O)N[C@@H](CCCC)C(=O)NCC(=O)OC(C)(C)C [Compound 8a, (S)-tert-Butyl 2-(2-(2-oxohexadecanamido)hexanamido)acetate] | – | – | 38 to 39 | GIVA cPLA2 % inhibition (GIVA cPLA2 [1]): 72%; GV sPLA2 % inhibition (GV sPLA2): 59% |

| SMILES | IC50 (RAW 264.7 macrophages; [3]) [µM] | IC50 (RAW 264.7 macrophages; [4]) [µM] | Effect on AA release (in words) (RAW 264.7 macrophages; RAW 264.7 macrophages) | inhibition at 25 µM (RAW 264.7 macrophages; [5]) [%] | melting point [°C] | further results |
| --- | --- | --- | --- | --- | --- | --- |
| CCCCCCCCCCCCCCC(=O)C(=O)N[C@@H](CCCC)COCC(=O)O [Compound 18, (S)-2-(2-(2-oxohexadecanainido)hexyloxy)acetic Acid] | – | 2 | significant reduction of AA release | 68 | 64 to 66 | GIVA cPLA2 X1(50) (GIVA cPLA2 [1]): 0.017 mole fraction and 0.017 ± 0.002 mole fraction; inhibition at 0.091 mole fraction (GV sPLA2): < 25% |
